Counter-ions that a name gives are not always drawn. Like-named read-outs stand apart in the source and are kept apart here.

In this series the test system is centipedegrass. The note with it: for centipedegrass injury: dicamba alone, 0 to 10 scale; for Observed Injury: 0-10 scale, 0=no injury, 10=death.

Procedure: A trial was initiated Apr. […] Research was conducted as a randomized complete block design (4 reps), with plot size equal to 6 square meters (2 meter width and 3 meter length). This provided a roughly 1.5 foot buffer between experimental units for reference. Herbicide treatments were applied within a water carrier volume of 40 gallons/acre. A two inch rainfall occurred 48 hours prior to initiation (April 17). Time to next rainfall: roughly 1 inch fell during the late night hours of the 21st and early morning of 22nd. Centipedegrass was approximately 90% green cover at time of treatment-almost fully transitioned from winter dormancy. […] Turf injury (0-10 scale, 0=no injury, 10=death), color (1-9 scale, 1=brown, 9=dark green), and density (0-100%) were evaluated 5, 8, 13, 23, 29 and 44 days after treatment (DAT). Data were subject to analysis of variance (alpha=0.05). Means separations were estimated using Student Knewman Keul's test (alpha=0.05) within ARM v.

For `COc1c(Cl)ccc(Cl)c1C(=O)O` [Dicamba MIBPA, N,N-bis(3-aminopropyl)methylamine salt (MIBPA) of dicamba], the centipedegrass injury runs as follows: (23 DAT, regardless of rate) below 0.8; (29 DAT, across all rates) 0. For the same molecule, the “Observed Injury” value amounted to 0.0 (Dicamba MIBPA 0.12 lb ae/a alone, 5 DAA); 0.0 (Dicamba MIBPA 0.12 lb ae/a alone, 8 DAA); 0.0 (Dicamba MIBPA 0.12 lb ae/a alone, 13 DAA); 0.38 (Dicamba MIBPA 0.12 lb ae/a alone, 23 DAA); 0.00 (Dicamba MIBPA 0.12 lb ae/a alone, 29 DAA); 0.25 (Dicamba MIBPA 0.12 lb ae/a alone, 44 DAA). Also, the “Observed Injury” value is, setting by setting: (Dicamba MIBPA 0.24 lb ae/a alone, 5 DAA) 0.0; (Dicamba MIBPA 0.24 lb ae/a alone, 8 DAA) 0.0; (Dicamba MIBPA 0.24 lb ae/a alone, 13 DAA) 0.0; (Dicamba MIBPA 0.24 lb ae/a alone, 23 DAA) 0.38; (Dicamba MIBPA 0.24 lb ae/a alone, 29 DAA) 0.00; (Dicamba MIBPA 0.24 lb ae/a alone, 44 DAA) 0.38. For the same molecule, the “Observed Injury” value runs as follows: (Dicamba MIBPA 0.36 lb ae/a alone, 5 DAA) 0.0; (Dicamba MIBPA 0.36 lb ae/a alone, 8 DAA) 0.0; (Dicamba MIBPA 0.36 lb ae/a alone, 13 DAA) 0.0; (Dicamba MIBPA 0.36 lb ae/a alone, 23 DAA) 0.75; (Dicamba MIBPA 0.36 lb ae/a alone, 29 DAA) 0.00; (Dicamba MIBPA 0.36 lb ae/a alone, 44 DAA) 0.50.

Values taken from patent publication US20190075797A1, “Safened Herbicidal compositions containing halauxifen or 4-amino-3-chloro-6-(4-chloro-2-fluoro-3-methoxyphenyl)-5-fluoropyridine-2-carboxylic acid and methods of use thereof in centipedegrass” (Dow AgroSciences LLC, priority 2017, published 2019).
